Results published in PubChem BioAssay AID2060488 (Molecular Pharmacology Branch, DTP, NCI, 2025).

System: 966289-007-R4-J1-PDC complex spheroid viability
Assay: Anticancer human tumor 966289-007-R4-J1-PDC patient-derived pancreatic adenocarcinoma cell line growth inhibition [GQUAD]
Conditions: for IC50: curve of first compound; for viability, T/C: stronger effect = lower value
Summary of the method: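 Viability of tumor cells grown as complex spheroids with endothelial and stromal cells, exposed to drug combinations. Top concentration at or near clinical Cmax (else 10 microM), diluted in half-log increments.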

[1] = second compound 0.0316 µM, first compound 0.0316 µM
[2] = second compound 0.0316 µM, first compound 0.1 µM
[3] = second compound 0.0316 µM, first compound 0.316 µM
[4] = second compound 0.0316 µM, first compound 1 µM
[5] = second compound 0.0316 µM, first compound 3.16 µM
[6] = second compound 0.0316 µM, first compound 10 µM
[7] = second compound 0.1 µM, first compound 0.0316 µM
[8] = second compound 0.1 µM, first compound 0.1 µM
[9] = second compound 0.1 µM, first compound 0.316 µM
[10] = second compound 0.1 µM, first compound 1 µM
[11] = second compound 0.1 µM, first compound 3.16 µM
[12] = second compound 0.1 µM, first compound 10 µM
[13] = second compound 0.316 µM, first compound 0.0316 µM
[14] = second compound 0.316 µM, first compound 0.1 µM
[15] = second compound 0.316 µM, first compound 0.316 µM
[16] = second compound 0.316 µM, first compound 1 µM
[17] = second compound 0.316 µM, first compound 3.16 µM
[18] = second compound 0.316 µM, first compound 10 µM
[19] = second compound 1 µM, first compound 0.0316 µM
[20] = second compound 1 µM, first compound 0.1 µM
[21] = second compound 1 µM, first compound 0.316 µM
[22] = second compound 1 µM, first compound 1 µM
[23] = second compound 1 µM, first compound 3.16 µM
[24] = second compound 1 µM, first compound 10 µM
[25] = second compound 3.16 µM, first compound 0.0316 µM
[26] = second compound 3.16 µM, first compound 0.1 µM
[27] = second compound 3.16 µM, first compound 0.316 µM
[28] = second compound 3.16 µM, first compound 1 µM
[29] = second compound 3.16 µM, first compound 3.16 µM
[30] = second compound 3.16 µM, first compound 10 µM
[31] = second compound 10 µM, first compound 0.0316 µM
[32] = second compound 10 µM, first compound 0.1 µM
[33] = second compound 10 µM, first compound 0.316 µM
[34] = second compound 10 µM, first compound 1 µM
[35] = second compound 10 µM, first compound 3.16 µM
[36] = second compound 10 µM, first compound 10 µM
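Further: spheroids exposed to the agents for seven days before readout.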
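Wherever viability, T/C is given: percent viability relative to DMSO vehicle control wells taken as 100%.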

C=CCn1c(=O)c2cnc(Nc3ccc(N4CCN(C)CC4)cc3)nc2n1-c1cccc(C(C)(C)O)n1 + CN(C)c1ccc(Nc2c3ccc(NC(=O)CCN4CCCC4)cc3nc3cc(NC(=O)CCN4CCCC4)ccc23)cc1
IC50 (second compound 0.0316 µM): 1850 nM
IC50 (second compound 0.1 µM): 1880 nM
IC50 (second compound 0.316 µM): 1900 nM
IC50 (second compound 1 µM): 1900 nM
IC50 (second compound 3.16 µM): 1750 nM
IC50 (second compound 10 µM): 1320 nM
viability, T/C [1]: 104%
viability, T/C [2]: 103%
viability, T/C [3]: 113%
viability, T/C [4]: 99.8%
viability, T/C [5]: 6.96%
viability, T/C [6]: 2.02%
viability, T/C [7]: 99.6%
viability, T/C [8]: 103%
viability, T/C [9]: 111%
viability, T/C [10]: 101%
viability, T/C [11]: 8.04%
viability, T/C [12]: 1.98%
viability, T/C [13]: 96.8%
viability, T/C [14]: 97.2%
viability, T/C [15]: 110%
viability, T/C [16]: 102%
viability, T/C [17]: 8.92%
viability, T/C [18]: 1.93%
viability, T/C [19]: 95.3%
viability, T/C [20]: 108%
viability, T/C [21]: 113%
viability, T/C [22]: 102%
viability, T/C [23]: 8.33%
viability, T/C [24]: 2.74%
viability, T/C [25]: 104%
viability, T/C [26]: 104%
viability, T/C [27]: 112%
viability, T/C [28]: 88.2%
viability, T/C [29]: 9.59%
viability, T/C [30]: 4.27%
viability, T/C [31]: 105%
viability, T/C [32]: 102%
viability, T/C [33]: 101%
viability, T/C [34]: 64.6%
viability, T/C [35]: 3.41%
viability, T/C [36]: 1.03%

CC(=O)O[C@H]1C(=O)[C@@]2(C)[C@H]([C@H](OC(=O)c3ccccc3)[C@]3(O)C[C@H](OC(=O)[C@H](O)[C@@H](NC(=O)c4ccccc4)c4ccccc4)C(C)=C1C3(C)C)[C@]1(OC(C)=O)CO[C@@H]1C[C@@H]2O + CN(C)c1ccc(Nc2c3ccc(NC(=O)CCN4CCCC4)cc3nc3cc(NC(=O)CCN4CCCC4)ccc23)cc1
IC50 (second compound 0.0316 µM): < 31.6 nM
IC50 (second compound 0.1 µM): < 31.6 nM
IC50 (second compound 0.316 µM): < 31.6 nM
IC50 (second compound 1 µM): < 31.6 nM
IC50 (second compound 3.16 µM): < 31.6 nM
IC50 (second compound 10 µM): < 31.6 nM
viability, T/C [1]: 6.18%
viability, T/C [2]: 3.03%
viability, T/C [3]: 4.68%
viability, T/C [4]: 5.91%
viability, T/C [5]: 9.45%
viability, T/C [6]: 14.6%
viability, T/C [7]: 6.28%
viability, T/C [8]: 3.31%
viability, T/C [9]: 4.65%
viability, T/C [10]: 7.21%
viability, T/C [11]: 8.08%
viability, T/C [12]: 13.5%
viability, T/C [13]: 6.93%
viability, T/C [14]: 3.41%
viability, T/C [15]: 4.38%
viability, T/C [16]: 6.89%
viability, T/C [17]: 8.86%
viability, T/C [18]: 12.6%
viability, T/C [19]: 6.47%
viability, T/C [20]: 3.38%
viability, T/C [21]: 4.34%
viability, T/C [22]: 6.41%
viability, T/C [23]: 9.91%
viability, T/C [24]: 12%
viability, T/C [25]: 5.06%
viability, T/C [26]: 3.06%
viability, T/C [27]: 4.72%
viability, T/C [28]: 6.71%
viability, T/C [29]: 7.72%
viability, T/C [30]: 11.3%
viability, T/C [31]: 3.86%
viability, T/C [32]: 2.35%
viability, T/C [33]: 3.67%
viability, T/C [34]: 4.43%
viability, T/C [35]: 6.04%
viability, T/C [36]: 6.46%

CC(C)(O)C1CCC(Nc2ccc3ncc(-c4cccc(C(F)(F)F)c4)n3n2)CC1 (stereo unspecified) + CN(C)c1ccc(Nc2c3ccc(NC(=O)CCN4CCCC4)cc3nc3cc(NC(=O)CCN4CCCC4)ccc23)cc1
IC50 (second compound 0.0316 µM): > 10000 nM
IC50 (second compound 0.1 µM): 2940 nM
IC50 (second compound 0.316 µM): 3080 nM
IC50 (second compound 1 µM): 2090 nM
IC50 (second compound 3.16 µM): 1830 nM
IC50 (second compound 10 µM): 668 nM
viability, T/C [1]: 108%
viability, T/C [2]: 102%
viability, T/C [3]: 101%
viability, T/C [4]: 95.3%
viability, T/C [5]: 53.1%
viability, T/C [6]: 57.9%
viability, T/C [7]: 109%
viability, T/C [8]: 101%
viability, T/C [9]: 98.1%
viability, T/C [10]: 103%
viability, T/C [11]: 39.4%
viability, T/C [12]: 53.4%
viability, T/C [13]: 97.7%
viability, T/C [14]: 100%
viability, T/C [15]: 95.8%
viability, T/C [16]: 110%
viability, T/C [17]: 43.9%
viability, T/C [18]: 53.8%
viability, T/C [19]: 95.1%
viability, T/C [20]: 103%
viability, T/C [21]: 102%
viability, T/C [22]: 97.5%
viability, T/C [23]: 18.3%
viability, T/C [24]: 28.3%
viability, T/C [25]: 103%
viability, T/C [26]: 98.7%
viability, T/C [27]: 100%
viability, T/C [28]: 106%
viability, T/C [29]: 2.64%
viability, T/C [30]: 1.96%
viability, T/C [31]: 103%
viability, T/C [32]: 104%
viability, T/C [33]: 104%
viability, T/C [34]: 20.9%
viability, T/C [35]: 0.21%
viability, T/C [36]: 0.8%
